Measured values: patent US12275721B2, “Indazole carboxamides as kinase inhibitors” (BRISTOL-MYERS SQUIBB COMPANY, priority 2019, dated 2025)
Like-named read-outs stand apart in the source and are kept apart here.

Columns and labels:
[1] = target: T1, His-GST-TVMV-hRIPK1(1-324) (Homo sapiens, UniProt Q13546); test: RIPK1 HTRF Binding Assay; conditions: HTRF probe displacement, 1 h at rt
T1 construct: 1 nM His-GST-TVMV-hRIPK1(1-324) in FRET Buffer; made in house; host or cells: Spodoptera frugiperda (Sf9) insect cells, baculovirus (Bac-to-Bac)
T1 sequence (Q13546 1-324): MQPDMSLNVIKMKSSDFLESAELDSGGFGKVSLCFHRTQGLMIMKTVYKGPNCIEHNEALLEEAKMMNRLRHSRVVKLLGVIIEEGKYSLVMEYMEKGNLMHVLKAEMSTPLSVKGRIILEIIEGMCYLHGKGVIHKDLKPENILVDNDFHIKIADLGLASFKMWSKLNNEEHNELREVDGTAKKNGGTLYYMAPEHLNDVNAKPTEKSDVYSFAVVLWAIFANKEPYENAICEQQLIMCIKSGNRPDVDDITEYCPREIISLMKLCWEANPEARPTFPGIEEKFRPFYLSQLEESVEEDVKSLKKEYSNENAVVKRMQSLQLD
Procedure: A solution was prepared containing 0.2 nM Anti GST-Tb (Cisbio, 61GSTTLB), 90.6 nM probe and 1 nM His-GST-TVMV-hRIPK1(1-324) in FRET Buffer (20 mM HEPES, 10 mM MgCl2, 0.015% Brij-35, 4 mM DTT, 0.05 mg/mL BSA). Using Formulatrix Tempest, the detection antibody/enzyme/probe solution ([…]) was dispensed into wells of a 1536 plate (Black Low Binding Polystyrene 1536 Plate (Corning, 3724)) containing 10 nL of compounds of interest at appropriate concentration in DMSO. The plate was incubated at rt for 1 h. FRET was measured using the EnVision plate reader (Excitation: 340 nm, Emission: 520 nm/[…]). Total signal (0% inhibition) was calculated from wells containing 10 nL DMSO only.
Cloning and Baculovirus Expression of RIPK1 Construct
The coding region of human RIPK1(1-324) flanked by NdeI site at 5′ end and stop codon TGA and XhoI site at 3′ end was codon optimized and gene synthesized at GenScript USA Inc. (Piscataway, NJ) and subcloned into a modified pFastBac1 vector (Invitrogen, Carlsbad, CA) with N-terminal His-GST-TVMV tag, to generate His-GST TVMV-hRIPK1(1-324)-pFB. The fidelity of the synthetic fragment was confirmed by sequencing. Baculovirus was generated for the construct using the Bac-to-Bac baculovirus expression system (Invitrogen) according to the manufacturer's protocol. Briefly, recombinant bacmid was isolated from transformed DH10Bac E. coli competent cells 20 (Invitrogen) and used to transfect Spodoptera frugiperda (Sf9) insect cells (Invitrogen). Baculovirus was harvested 72 hours post transfection and a virus stock was prepared by infecting fresh Sf9 cells at a 1/1000 (v/v) ratio for 66 hours. For large scale protein production, Sf9 cells (Expression System, Davis, CA) grown in ESF921 insect medium (Expression System) at 2×10^6 cells/ml were infected with virus stock at a 1/100 (v/v) ratio for 66 hours. The production was carried out either at a 10 L scale in a 22 L cellbag (GE Healthcare Bioscience, Pittsburgh, PA) or at a 20 L scale in a 50 L cellbag using WAVE-Bioreactor System 20/50 (GE Healthcare Bioscience). The infected cells were harvested by centrifugation at 2000 rpm for 20 min at 4° C. in a SORVALL® RC12BP centrifuge. The cell pellets was stored at −70° C. before protein was purified.
Purification of His-GST-TVMV-hRIPK1(1-324)
RIPK1 containing cell paste was resuspended in 50 mM Tris pH 7.5, 150 mM NaCl, 10 mM imidazole, 5% glycerol, 5 mM MgSO4, 1 mM TCEP, 25 U/ml Benzonase, and Complete Protease Inhibitor tablets (1/50 ml, Roche Diagnostics, Indianapolis, IN). The cells were lysed by nitrogen cavitation using an unstirred pressure vessel @ 525 PSI (Parr Instrument Company, Moline, IL). The suspension was clarified by centrifugation at 136,000×g for 40 min, at 4° C. The lysate was decanted from the pellet and passed through a 5 ml NiNTA Superflow cartridge (Qiagen, Valencia, CA) using an AKTA Pure (GE Healthcare). Column was eluted with 10 CV linear gradient into 50 mM Tris 7.5, 150 mM NaCl, 500 mM imidazole, 5% glycerol, 1 mM TCEP. Peak fractions were pooled and loaded directly onto 5 ml GSTrap 4B column (GE Healthcare). Column was washed with 50 mM Tris 7.0, 150 mM NaCl, […], 1 mM DTT and eluted in 10 CV linear gradient into 50 mM Tris 8.0, 150 mM NaCl, 20 mM reduced glutathione, 50% glycerol, 1 mM DTT. Fractions identified by SDS-PAGE as containing RIPK1 were pooled and concentrated using 30 kDa MWCO spin concentrators (Amicon Ultra-15, Millipore, Billerica, MA) and loaded onto a HiLoad 26/600 Superdex 200 column (GE Healthcare) equilibrated in 25 mM Tris 7.5, 150 mM NaCl, 2 mM TCEP, […]. The RTPK1 protein eluted as a dimer off the SEC column. The yield was ˜8 mg/L with a purity […] as determined by Coomassie stain SDS-PAGE gel analysis. […] Protein was aliquoted and stored at −80° C. Using these assays, the IC50 values of the following compounds were determined.

[2] = test system: MLKL phosphorylation in HT29-L23 human colorectal adenocarcinoma cells; test: MLKL Phosphorylation High-Content Assay; format: cell-based; conditions: necroptosis induced with TNFα, SMAC mimetic and Z-VAD, 6 h, read-out: pMLKL (IC50)
Procedure: MLKL Phosphorylation High-Content Assay
HT29-L23 human colorectal adenocarcinoma cells were maintained in RPMI 1640 medium containing 10% heat-inactivated FBS, 1% Penicillin-Streptomycin and 10 mM HEPES. Cells were seeded at 2,000 cells/well in 384 well tissue culture-treated microplates (Greiner #781090-3B) and incubated at 37° C. (5% CO2/95% O2) for 2 d. On the day of the assay, the cells were treated with test compounds at final concentrations of 6.25 to 0.106 μM for 30 min at 37° C. (5% CO2/95% O2). Necroptopsis was induced using a mixture of human TNFα (35 ng/mL) (Peprotech #300-01A), SMAC mimetic (from US 2015/0322111 A1) (700 nM) and Z-VAD (140 nM) (BD pharmingen #51-6936). Following 6 h incubation at 37° C. (5% CO2/95% O2), the cells were fixed with 4% formaldehyde (ACROS 11969-0010) for 15 min at rt, then permeabilized with phosphate buffered saline (PBS) containing 0.2% Triton-X-100 for 10 min. MLKL phosphorylation was detected using anti-MLKL (phospho S358) antibody (Abcam #ab187091) (1:1000 dilution in Blocking Buffer [PBS supplemented with 0.1% BSA]) with ON incubation at 4° C. After washing three times in PBS, goat anti-rabbit Alexa-488 (1:1000 dilution) (Life Technologies, A1 1008) and Hoechst 33342 (Life Technologies, H3570) (1:2000 dilution) in Blocking Buffer were added for 1 h at rt. Following another three cycles of washes in PBS, the microplates were sealed, and cellular images were acquired in the Cellomics ArrayScan VTI high-content imager equipped with an X1 camera. Fluorescent images were taken using a 10× objective and the 386-23 BGRFRN_BGRFRN and 485-20 BGRFRN_BGRFRN filter sets, for nuclei and MLKL phosphorylation, respectively. The image sets were analyzed using the Compartmental Analysis Bioapplication software (Cellomics). The level of MLKL phosphorylation was quantified as MEAN_CircRingAvglntenRatio. The maximal inhibitory response was defined by the activity induced by Necls (CAS #: 852391-15-2, 6.25 μm). The IC50 value was defined as the concentration of compound that produces 50% of the maximal inhibition. The data were fitted using the 4-parameter logistic equation to calculate the IC50 and Ymax values.

| Compound | IC50 [1] [nM] | IC50 ([2]; Homo sapiens) [nM] | IC50 [2] [nM] |
| --- | --- | --- | --- |
| CC(C)NC(=O)c1n[nH]c2cc(-c3csc(C(=O)NCC[C@@H](O)c4ccc(Cl)cc4)c3)ccc12 [Example 5, (R)-6-(5-((3-(4-chlorophenyl)-3-hydroxypropyl)carbamoyl)thiophen-3-yl)-N-isopropyl-1H-indazole-3-carboxamide] | 800 | 1100 | – |
| CNC(=O)c1n[nH]c2cc(-c3csc(C(=O)NCC[C@H](O)c4ccc(Cl)cc4)c3)ccc12 [Example 4, (S)-6-(5-((3-(4-chlorophenyl)-3-hydroxypropyl)carbamoyl)thiophen-3-yl)-N-methyl-1H-indazole-3-carboxamide] | 43 | 230 | – |
| CNC(=O)c1n[nH]c2cc(-c3ncc(C(=O)NCCC(C)c4ccccc4)s3)ccc12 (stereo not drawn) [Example 24, 2-(3-(methylcarbamoyl)-1H-indazol-6-yl)-N-(3-phenylbutyl)thiazole-5-carboxamide] | 280 | 700 | – |
| CNC(=O)c1n[nH]c2cc(-c3cc(C)c(C(=O)NCCC(C)c4ccccc4)s3)ccc12 (stereo not drawn) [Example 11, N-methyl-6-(4-methyl-5-((3-phenylbutyl)carbamoyl)thiophen-2-yl)-1H-indazole-3-carboxamide] | 1.8 | 2 | – |
| CNC(=O)c1n[nH]c2cc(-c3nc(C)c(C(=O)NCC[C@H](O)c4ccc(Cl)cc4)n3C)ccc12 [Example 29, (S)-6-(5-((3-(4-chlorophenyl)-3-hydroxypropyl)carbamoyl)-1,4-dimethyl-1H-imidazol-2-yl)-N-methyl-1H-indazole-3-carboxamide] | 1900 | 3300 | – |
| CNC(=O)c1n[nH]c2cc(-c3nc(C(=O)NCC[C@@H](O)c4ccc(Cl)cc4)c(C)n3C)ccc12 [Example 33, (R)-6-(4-((3-(4-chlorophenyl)-3-hydroxypropyl)carbamoyl)-1,5-dimethyl-1H-imidazol-2-yl)-N-methyl-1H-indazole-3-carboxamide] | 570 | 2200 | – |
| CNC(=O)c1n[nH]c2cc(-c3csc(C(=O)NCC[C@@H](O)c4ccc(Cl)cc4)c3)ccc12 [Example 3, (R)-6-(5-((3-(4-chlorophenyl)-3-hydroxypropyl)carbamoyl)thiophen-3-yl)-N-methyl-1H-indazole-3-carboxamide] | 47 | 200 | – |
| CNC(=O)c1n[nH]c2cc(-c3ccc(C(=O)NCc4cc(OC(F)(F)F)ccc4F)s3)ccc12 [Example 6, 6-(5-((2-fluoro-5-(trifluoromethoxy)benzyl)carbamoyl)thiophen-2-yl)-N-methyl-1H-indazole-3-carboxamide] | 31 | 56 | – |
| CNC(=O)c1n[nH]c2cc(-c3nc(C)c(C(=O)NCc4cc(OC(F)(F)F)ccc4F)n3C)ccc12 [Example 26, 6-(5-((2-fluoro-5-(trifluoromethoxy)benzyl)carbamoyl)-1,4-dimethyl-1H-imidazol-2-yl)-N-methyl-1H-indazole-3-carboxamide] | 30 | 49 | – |
| CNC(=O)c1n[nH]c2cc(-c3ccc(C(=O)NCCC(C)c4ccccc4)s3)ccc12 (stereo not drawn) [Example 7, N-methyl-6-(5-((3-phenylbutyl)carbamoyl)thiophen-2-yl)-1H-indazole-3-carboxamide] | 17 | 3.9 | – |
| CNC(=O)c1n[nH]c2cc(-c3nc(C(=O)NCc4cc(C(F)(F)F)ccc4F)c(C)n3C)ccc12 [Example 35, 6-(4-((2-fluoro-5-(trifluoromethyl)benzyl)carbamoyl)-1,5-dimethyl-1H-imidazol-2-yl)-N-methyl-1H-indazole-3-carboxamide] | 200 | 890 | – |
| (S)-6-(5-((3-(4-chlorophenyl)-3-hydroxypropyl)carbamoyl)-4-methylthiophen-2-yl)-N-methyl-1H-indazole-3-carboxamide [Example 13] | 10 | – | 23 |
| CNC(=O)c1n[nH]c2cc(-c3cc(C)c(C(=O)NCc4cc(OC(F)(F)F)ccc4F)s3)ccc12 [Example 10, 6-(5-((2-fluoro-5-(trifluoromethoxy)benzyl)carbamoyl)-4-methylthiophen-2-yl)-N-methyl-1H-indazole-3-carboxamide] | 2 | 1 | – |
| CNC(=O)c1n[nH]c2cc(-c3nc(C)c(C(=O)NCCC(C)c4ccccc4)s3)ccc12 (stereo not drawn) [Example 15, 4-methyl-2-(3-(methylcarbamoyl)-1H-indazol-6-yl)-N-(3-phenylbutyl)thiazole-5-carboxamide] | 8.3 | 44 | – |
| CNC(=O)c1n[nH]c2cc(-c3nc(C(=O)NCCC(C)c4ccccc4)c(C)n3C)ccc12 (stereo not drawn) [Example 32, 6-(1,5-dimethyl-4-((3-phenylbutyl)carbamoyl)-1H-imidazol-2-yl)-N-methyl-1H-indazole-3-carboxamide] | 230 | 460 | – |
